Literature values, collected in patent publication US20220267753A1, “RATIONAL THERAPEUTIC TARGETING OF ONCOGENIC IMMUNE SIGNALING STATES IN MYELOID MALIGNANCIES VIA THE UBIQUITIN CONJUGATING ENZYME UBE2N” (CHILDREN'S HOSPITAL MEDICAL CENTER, priority 2019, published 2022).

Target: T1, UBE2N (Homo sapiens, UniProt P61088)
T1 sequence (P61088 1-152): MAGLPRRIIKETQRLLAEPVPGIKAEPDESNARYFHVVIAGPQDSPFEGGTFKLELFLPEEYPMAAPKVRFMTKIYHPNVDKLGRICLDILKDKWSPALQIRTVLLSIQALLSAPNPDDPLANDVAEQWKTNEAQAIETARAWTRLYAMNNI
Settings: cited from earlier work; for inhibition of UBE2N by covalent reaction with Cys-87: reference [16]; for selectivity among cysteine-containing ubiquitin enzymes: references [23-25]

Row | SMILES | inhibition of UBE2N by covalent reaction with Cys-87 | selectivity among cysteine-containing ubiquitin enzymes
1 | Cc1ccc(S(=O)(=O)/C=C/C#N)cc1 [BAY11-7082] | irreversible inhibition of UBE2N | non-selective inhibitors
2 | Cc1ccc(S(=O)(=O)c2ccc([N+](=O)[O-])o2)cc1 [NSC697923, 2-(4-methylphenyl)sulfonyl-5-nitrofuran] | irreversible inhibition of UBE2N | non-selective inhibitors
